Experimental data taken from US10563263B2, “Genetic polymorphisms associated with statin response and cardiovascular diseases, methods of detection and uses thereof” (CELERA CORPORATION, priority 2010, dated 2020).

System: CHD
Test: Meta-analysis of CARE and WOSCOPS combined, synergy index, CHD endpoint
Assay type: in vivo, human
Source text: Tables 4-5 provide meta-analyses of CARE and WOSCOPS combined (2nd section of each table) for two endpoints (CHD and CVD) and three genetic models (dominant, recessive, and additive), as well as logistic regression analyses of CARE (3rd section of each table) and WOSCOPS (4th section of each table) individually.
Tables 12 and 17 provide results of meta-analysis of the CARE and WOSCOPS sample sets combined by direct genotyping and by imputing genotypes.
“P” indicates the p-value, and “P(R)” (or “P.R.”) indicates the p-value random effect. Both of these are p-values corresponding to a statistical test of whether the combined synergy index is equal to one but use different assumptions to derive the p-value. “P” is calculated using a fixed effects model, and “P(R)” is calculated using a random effects model.
“OR” indicates the odds ratio (synergy index) calculated from a fixed effects model, and “OR(R)” (or “OR.R.”) indicates the odds ratio (synergy index) calculated from a random effects model.

[1] = SNP rs1321432, allele (A1) A, RECESSIVE, Imputed
[2] = SNP rs1321457, allele (A1) G, RECESSIVE, Imputed
[3] = SNP rs1336382, allele (A1) T, DOMINANT, Imputed
[4] = SNP rs1336383, allele (A1) T, DOMINANT, Imputed
[5] = SNP rs1336407, allele (A1) T, DOMINANT, Imputed
[6] = SNP rs1336409, allele (A1) T, DOMINANT, Imputed
[7] = SNP rs1336596, allele (A1) A, DOMINANT, Imputed
[8] = SNP rs1343560, allele (A1) T, ADDITIVE, Imputed
[9] = SNP rs1343560, allele (A1) T, DOMINANT, Imputed
[10] = SNP rs1361987, allele (A1) T, GENOTYPIC, Imputed
[11] = SNP rs12923993, allele (A1) C, DOMINANT, Imputed
[12] = SNP rs12936964, allele (A1) T, DOMINANT, Imputed
[13] = SNP rs12960663, allele (A1) G, ADDITIVE, Imputed
[14] = SNP rs13038146, allele (A1) C, ADDITIVE, Imputed
[15] = SNP rs13038146, allele (A1) C, GENOTYPIC, Imputed
[16] = SNP rs13134222, allele (A1) A, GENOTYPIC, Imputed
[17] = SNP rs13172910, allele (A1) A, DOMINANT, Imputed
[18] = SNP rs13194907, allele (A1) A, ADDITIVE, Imputed
[19] = SNP rs13194907, allele (A1) A, DOMINANT, Imputed
[20] = SNP rs13195745, allele (A1) A, ADDITIVE, Imputed
[21] = SNP rs13195745, allele (A1) A, DOMINANT, Imputed
[22] = SNP rs13265054, allele (A1) T, DOMINANT, Imputed
[23] = SNP rs13282131, allele (A1) C, GENOTYPIC, Imputed
[24] = SNP rs13353526, allele (A1) C, DOMINANT, Imputed
[25] = rs1003148 allele C RECESSIVE Imputed
[26] = rs1008705 allele C DOMINANT Imputed
[27] = rs1149350 allele A DOMINANT Imputed
[28] = rs1150143 allele G DOMINANT Imputed
[29] = rs1204522 allele C GENOTYPIC Imputed
[30] = rs1204524 allele A GENOTYPIC Imputed
[31] = rs1232298 allele G RECESSIVE Imputed
[32] = rs1247340 allele C DOMINANT Imputed
[33] = rs1247341 allele C DOMINANT Imputed
[34] = rs10046799 allele C ADDITIVE Imputed
[35] = rs10046799 allele C GENOTYPIC Imputed
[36] = rs10051148 allele C DOMINANT Imputed
[37] = rs10054055 allele T DOMINANT Imputed

SMILES: CC[C@H](C)C(=O)O[C@H]1C[C@H](O)C=C2C=C[C@H](C)[C@H](CC[C@@H](O)C[C@@H](O)CC(=O)O)[C@H]21 [Pravastatin, pravastatin]
- OR [1]: 2.1221
- OR(R) [1]: 2.1221
- OR [2]: 2.0656
- OR(R) [2]: 2.0656
- OR [3]: 1.6135
- OR(R) [3]: 1.6135
- OR [4]: 1.6135
- OR(R) [4]: 1.6135
- OR [5]: 1.6135
- OR(R) [5]: 1.6135
- OR [6]: 1.6085
- OR(R) [6]: 1.6059
- OR [7]: 0.5951
- OR(R) [7]: 0.5951
- OR [8]: 0.5393
- OR(R) [8]: 0.5393
- OR [9]: 0.5034
- OR(R) [9]: 0.5034
- OR [10]: 0.4404
- OR(R) [10]: 0.4404
- OR [11]: 1.4572
- OR(R) [11]: 1.4572
- OR [12]: 1.6688
- OR(R) [12]: 1.6688
- OR [13]: 0.6241
- OR(R) [13]: 0.6241
- OR [14]: 1.3708
- OR(R) [14]: 1.3708
- OR [15]: 1.9308
- OR(R) [15]: 1.9308
- OR [16]: 0.3011
- OR(R) [16]: 0.3011
- OR [17]: 0.6547
- OR(R) [17]: 0.6547
- OR [18]: 2.303
- OR(R) [18]: 2.303
- OR [19]: 2.505
- OR(R) [19]: 2.505
- OR [20]: 2.303
- OR(R) [20]: 2.303
- OR [21]: 2.505
- OR(R) [21]: 2.505
- OR [22]: 0.6144
- OR(R) [22]: 0.6144
- OR [23]: 1.8412
- OR(R) [23]: 1.8412
- OR [24]: 1.9371
- OR(R) [24]: 1.9371
- Meta-analysis OR (rs1948 allele A vs G (ref)): 1.66
- Meta-analysis OR (rs151806 allele G vs A (ref)): 0.63
- Meta-analysis OR (rs205279 allele A vs G (ref)): 1.81
- Meta-analysis OR (rs238272 allele A vs G (ref)): 1.45
- Meta-analysis OR (rs312929 allele G vs A (ref)): 0.75
- Meta-analysis OR (rs316720 allele G vs A (ref)): 0.71
- Meta-analysis OR (rs331555 allele A vs C (ref)): 0.74
- Meta-analysis OR (rs354342 allele A vs G (ref)): 0.67
- Meta-analysis OR (rs453625, allele A1 A (non-ref), A2 G (ref), endpoint/model not given): 0.62
- Meta-analysis OR (rs610118 allele G vs A (ref)): 0.49
- Meta-analysis OR (rs669684 allele G vs A (ref)): 0.72
- Meta-analysis OR (rs842796 allele A vs G (ref)): 1.59
- Meta-analysis OR (rs886469 allele G vs A (ref)): 0.64
- Meta-analysis OR (rs969356 allele G vs A (ref)): 0.63
- OR [25]: 0.5819
- OR(R) [25]: 0.5829
- OR [26]: 1.4761
- OR(R) [26]: 1.4761
- Meta-analysis OR (rs1035618 allele A vs C (ref)): 1.42
- Meta-analysis OR (rs1076733, allele A1 A (non-ref), A2 G (ref), endpoint/model not given): 0.67
- OR [27]: 1.6713
- OR(R) [27]: 1.6713
- OR [28]: 1.6852
- OR(R) [28]: 1.6852
- Meta-analysis OR (rs1182878, allele A1 A (non-ref), A2 G (ref), endpoint/model not given): 0.78
- OR [29]: 0.4353
- OR(R) [29]: 0.4353
- OR [30]: 0.4351
- OR(R) [30]: 0.4351
- OR [31]: 2.0566
- OR(R) [31]: 2.0955
- OR [32]: 1.6742
- OR(R) [32]: 1.6742
- OR [33]: 1.684
- OR(R) [33]: 1.684
- Meta-analysis OR (rs1343563 allele C vs A (ref)): 0.60
- Meta-analysis OR (rs1349282 allele A vs G (ref)): 0.55
- Meta-analysis OR (rs1382787 allele G vs A (ref)): 1.35
- Meta-analysis OR (rs1474396, allele A1 A (non-ref), A2 C (ref), endpoint/model not given): 1.46
- Meta-analysis OR (rs1615197 allele G vs A (ref)): 1.80
- Meta-analysis OR (rs1884897 allele A vs G (ref)): 2.07
- Meta-analysis OR (rs2008165 allele G vs A (ref)): 0.59
- Meta-analysis OR (rs2023650 allele A vs G (ref)): 0.71
- Meta-analysis OR (rs2060411 allele A vs G (ref)): 1.39
- Meta-analysis OR (rs2104506 allele A vs C (ref)): 0.71
- Meta-analysis OR (rs2129571, allele A1 A (non-ref), A2 G (ref), endpoint/model not given): 0.53
- Meta-analysis OR (rs2145540 allele A vs G (ref)): 0.56
- Meta-analysis OR (rs2268650 allele A vs G (ref)): 0.66
- Meta-analysis OR (rs2273816 allele A vs G (ref)): 1.61
- Meta-analysis OR (rs2290193, allele A1 C (non-ref), A2 A (ref), endpoint/model not given): 0.47
- Meta-analysis OR (rs2376764 allele A vs G (ref)): 0.56
- Meta-analysis OR (rs2418412 allele G vs A (ref)): 1.94
- Meta-analysis OR (rs2483641, allele A1 A (non-ref), A2 G (ref), endpoint/model not given): 0.59
- Meta-analysis OR (rs2534752 allele G vs A (ref)): 1.65
- Meta-analysis OR (rs2626130 allele G vs A (ref)): 1.32
- Meta-analysis OR (rs2695026 allele A vs G (ref)): 0.67
- Meta-analysis OR (rs2793086 allele C vs A (ref)): 0.65
- Meta-analysis OR (rs2941528 allele A vs G (ref)): 0.67
- Meta-analysis OR (rs3000490 allele G vs A (ref)): 1.38
- Meta-analysis OR (rs3213616 allele A vs G (ref)): 0.62
- Meta-analysis OR (rs3732788 allele G vs A (ref)): 0.51
- Meta-analysis OR (rs3798544 allele A vs G (ref)): 1.57
- Meta-analysis OR (rs3998860 allele A vs G (ref)): 0.61
- Meta-analysis OR (rs4289236 allele A vs G (ref)): 1.41
- Meta-analysis OR (rs4611134 allele A vs G (ref)): 1.55
- Meta-analysis OR (rs4643388 allele G vs A (ref)): 1.34
- Meta-analysis OR (rs4682522 allele C vs A (ref)): 0.55
- Meta-analysis OR (rs4830819 allele G vs A (ref)): 0.60
- Meta-analysis OR (rs4869033 allele G vs A (ref)): 0.36
- Meta-analysis OR (rs4924215 allele A vs G (ref)): 1.65
- Meta-analysis OR (rs4986146 allele A vs G (ref)): 0.63
- Meta-analysis OR (rs4993917 allele A vs C (ref)): 0.60
- Meta-analysis OR (rs5017584 allele A vs G (ref)): 1.74
- Meta-analysis OR (rs6075209 allele A vs G (ref)): 0.64
- Meta-analysis OR (rs6080603 allele A vs C (ref)): 0.62
- Meta-analysis OR (rs6491586 allele G vs A (ref)): 1.65
- Meta-analysis OR (rs6505669 allele G vs A (ref)): 1.58
- Meta-analysis OR (rs6911817, allele A1 A (non-ref), A2 G (ref), endpoint/model not given): 2.85
- Meta-analysis OR (rs7094941, allele A1 G (non-ref), A2 A (ref), endpoint/model not given): 0.74
- Meta-analysis OR (rs7179134 allele A vs G (ref)): 3.52
- Meta-analysis OR (rs7193741 allele A vs C (ref)): 2.04
- Meta-analysis OR (rs7327364 allele A vs G (ref)): 0.68
- Meta-analysis OR (rs7497613, allele A1 A (non-ref), A2 G (ref), endpoint/model not given): 0.55
- Meta-analysis OR (rs7616936, allele A1 C (non-ref), A2 A (ref), endpoint/model not given): 1.77
- Meta-analysis OR (rs7705993 allele G vs A (ref)): 1.48
- Meta-analysis OR (rs7767024, allele A1 A (non-ref), A2 G (ref), endpoint/model not given): 1.42
- Meta-analysis OR (rs7910196, allele A1 G (non-ref), A2 A (ref), endpoint/model not given): 1.47
- Meta-analysis OR (rs8051893 allele A vs G (ref)): 0.67
- Meta-analysis OR (rs8109631 allele A vs G (ref)): 1.53
- Meta-analysis OR (rs9375683 allele G vs A (ref)): 1.49
- Meta-analysis OR (rs9436636 allele A vs G (ref)): 1.35
- Meta-analysis OR (rs9446187 allele A vs G (ref)): 1.96
- Meta-analysis OR (rs9658127, allele A1 A (non-ref), A2 G (ref), endpoint/model not given): 2.79
- OR [34]: 0.724
- OR(R) [34]: 0.7134
- OR [35]: 0.5342
- OR(R) [35]: 0.5221
- OR [36]: 0.5783
- OR(R) [36]: 0.5783
- OR [37]: 0.5791
- OR(R) [37]: 0.5791
- OR (rs10067895 allele A DOMINANT Imputed): 0.5759
